Test results reported in patent publication EP0284935A1, “5-Substituted quinolone- and naphthyridone carboxylic acid derivatives” (BAYER AG, priority 1987, dated 1988).
≈ marks a conversion by molar mass, not a printed value.

Key:
Test in all cases: Agar dilution test, minimum inhibitory concentration
Format in all cases: cell-based
Providencia 12012 = details: test strain Providencia 12012; Isosensitest-Agar (Oxoid), inoculum ca. 10^4 germs per inoculation point; read-out: Minimale Hemmkonzentrationen
Proteus mir. 8223 = details: test strain Proteus mir. 8223; Isosensitest-Agar (Oxoid), inoculum ca. 10^4 germs per inoculation point; read-out: Minimale Hemmkonzentrationen
Proteus vulg. 1017 = details: test strain Proteus vulg. 1017; Isosensitest-Agar (Oxoid), inoculum ca. 10^4 germs per inoculation point; read-out: Minimale Hemmkonzentrationen
Staph. FK 422 = details: test strain Staph. FK 422; Isosensitest-Agar (Oxoid), inoculum ca. 10^4 germs per inoculation point; read-out: Minimale Hemmkonzentrationen
Klebsiella 63 = details: test strain Klebsiella 63; Isosensitest-Agar (Oxoid), inoculum ca. 10^4 germs per inoculation point; read-out: Minimale Hemmkonzentrationen
Serratia 16040 = details: test strain Serratia 16040; Isosensitest-Agar (Oxoid), inoculum ca. 10^4 germs per inoculation point; read-out: Minimale Hemmkonzentrationen
Providencia 12052 = details: test strain Providencia 12052; Isosensitest-Agar (Oxoid), inoculum ca. 10^4 germs per inoculation point; read-out: Minimale Hemmkonzentrationen
Pseudomonas Ellsworth = details: test strain Pseudomonas Ellsworth; Isosensitest-Agar (Oxoid), inoculum ca. 10^4 germs per inoculation point; read-out: Minimale Hemmkonzentrationen
Enteroc. 9790 = details: test strain Enteroc. 9790; Isosensitest-Agar (Oxoid), inoculum ca. 10^4 germs per inoculation point; read-out: Minimale Hemmkonzentrationen
Morg. morg. 11006 = details: test strain Morg. morg. 11006; Isosensitest-Agar (Oxoid), inoculum ca. 10^4 germs per inoculation point; read-out: Minimale Hemmkonzentrationen
Morg. morg. 932 = details: test strain Morg. morg. 932; Isosensitest-Agar (Oxoid), inoculum ca. 10^4 germs per inoculation point; read-out: Minimale Hemmkonzentrationen
Pseudomonas Walter = details: test strain Pseudomonas Walter; Isosensitest-Agar (Oxoid), inoculum ca. 10^4 germs per inoculation point; read-out: Minimale Hemmkonzentrationen
E.coli A261 = details: Escherichia coli; test strain E.coli A261; Isosensitest-Agar (Oxoid), inoculum ca. 10^4 germs per inoculation point; read-out: Minimale Hemmkonzentrationen
E.coli 455/7 = details: Escherichia coli; test strain E.coli 455/7; Isosensitest-Agar (Oxoid), inoculum ca. 10^4 germs per inoculation point; read-out: Minimale Hemmkonzentrationen
E.coli Neumann = details: Escherichia coli; test strain E.coli Neumann; Isosensitest-Agar (Oxoid), inoculum ca. 10^4 germs per inoculation point; read-out: Minimale Hemmkonzentrationen
Enteroc. 27101 = details: test strain Enteroc. 27101; Isosensitest-Agar (Oxoid), inoculum ca. 10^4 germs per inoculation point; read-out: Minimale Hemmkonzentrationen
Staph. 133 = details: test strain Staph. 133; Isosensitest-Agar (Oxoid), inoculum ca. 10^4 germs per inoculation point; read-out: Minimale Hemmkonzentrationen
Staph. 1756 = details: test strain Staph. 1756; Isosensitest-Agar (Oxoid), inoculum ca. 10^4 germs per inoculation point; read-out: Minimale Hemmkonzentrationen
Klebsiella 8085 = details: test strain Klebsiella 8085; Isosensitest-Agar (Oxoid), inoculum ca. 10^4 germs per inoculation point; read-out: Minimale Hemmkonzentrationen

MIC (Providencia 12012): 0.06 µg/mL (≈ 0.159 µM)
MIC (Proteus mir. 8223): 0.25 µg/mL (≈ 0.661 µM)
MIC (Proteus vulg. 1017): 0.06 µg/mL (≈ 0.159 µM)
MIC (Staph. FK 422): 0.03 µg/mL (≈ 0.0793 µM)
MIC (Klebsiella 63): 0.03 µg/mL (≈ 0.0793 µM)
MIC (Serratia 16040): 4 µg/mL (≈ 10.6 µM)
MIC (Providencia 12052): 1 µg/mL (≈ 2.64 µM)
MIC (Pseudomonas Ellsworth): 0.06 µg/mL (≈ 0.159 µM)
MIC (Enteroc. 9790): 0.25 µg/mL (≈ 0.661 µM)
MIC (Morg. morg. 11006): 0.06 µg/mL (≈ 0.159 µM)
MIC (Morg. morg. 932): 0.03 µg/mL (≈ 0.0793 µM)
MIC (Pseudomonas Walter): 0.5 µg/mL (≈ 1.32 µM)
MIC (E.coli A261): 0.25 µg/mL (≈ 0.661 µM)
MIC (E.coli 455/7): 1 µg/mL (≈ 2.64 µM)
MIC (E.coli Neumann): 0.03 µg/mL (≈ 0.0793 µM)
MIC (Enteroc. 27101): 0.25 µg/mL (≈ 0.661 µM)
MIC (Staph. 133): 0.06 µg/mL (≈ 0.159 µM)
MIC (Staph. 1756): 0.06 µg/mL (≈ 0.159 µM)
MIC (Klebsiella 8085): 0.03 µg/mL (≈ 0.0793 µM)
Structure (SMILES): CN1CCN(c2c(F)c(N)c3c(=O)c(C(=O)O)cn(C4CC4)c3c2F)CC1 [Beispiel 19, 5-Amino-1-cyclopropyl-6,8-difluor-1,4-dihydro-7-(4-methyl-1-piperanyl)-4-oxo-3-chinolincarbonsäure]
